Assay results taken from patent US11926626B2, “Heterocyclic GLP-1 agonists” (Gasherbrum Bio, Inc., priority 2020, dated 2024).

Target: GLP-1 Receptor (Homo sapiens, UniProt P43220)
Test: GLP-1R agonist cAMP stimulation assay (HEK293/GLP1R/CRE-Luc cells, HTRF cAMP)
Type: cell-based
Conditions: HEK293/CRE-Luc cells stably expressing GLP-1 Receptor; 30 min, 37° C.

Sequence of GLP-1 Receptor (P43220 24-463): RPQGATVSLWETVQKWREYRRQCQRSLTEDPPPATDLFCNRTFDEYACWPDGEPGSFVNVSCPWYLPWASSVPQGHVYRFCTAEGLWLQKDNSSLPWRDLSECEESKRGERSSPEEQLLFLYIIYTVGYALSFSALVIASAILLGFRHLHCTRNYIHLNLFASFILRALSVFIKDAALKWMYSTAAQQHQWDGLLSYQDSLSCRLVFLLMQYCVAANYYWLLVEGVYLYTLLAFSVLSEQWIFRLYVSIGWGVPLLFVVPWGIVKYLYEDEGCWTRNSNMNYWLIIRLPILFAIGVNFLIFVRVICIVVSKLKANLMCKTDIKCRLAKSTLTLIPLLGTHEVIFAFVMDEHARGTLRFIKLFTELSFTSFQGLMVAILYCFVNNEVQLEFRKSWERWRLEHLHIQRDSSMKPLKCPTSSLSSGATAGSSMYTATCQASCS

Row | GLP1R cAMP Stimulation DR: pEC50 | SMILES
1 | 8.9 | O=C(O)c1ccc2nc(CN3CCC(Oc4ccnc(Cc5ccc(Cl)cc5)n4)CC3)n(C[C@H]3CCOC3)c2n1 [Compound 196a, (R)-2-((4-((2-(4-chlorobenzyl)pyrimidin-4-yl)oxy)piperidin-1-yl)methyl)-3-((tetrahydrofuran-3-yl)methyl)-3H-imidazo[4,5-b]pyridine-5-carboxylic acid]
2 | 8.6 | O=C(O)c1ccc2nc(CN3CCC(Oc4nc(Cc5ccc(Cl)cc5)ncc4F)CC3)n(C[C@H]3CCOC3)c2n1 [Compound 197a, (R)-2-((4-((2-(4-chlorobenzyl)-5-fluoropyrimidin-4-yl)oxy)piperidin-1-yl)methyl)-3-((tetrahydrofuran-3-yl)methyl)-3H-imidazo[4,5-b]pyridine-5-carboxylic acid]

The next lines start with the compound.

Row | SMILES | GLP1R cAMP Stimulation DR: pEC50
3 | COC(C)Cn1c(CN2CCC(Oc3ccnc(Cc4ccc(Cl)cc4)n3)CC2)nc2ccc(C(=O)O)nc21 (stereo not drawn) [Compound 195, 2-((4-((2-(4-chlorobenzyl)pyrimidin-4-yl)oxy)piperidin-1-yl)methyl)-3-(2-methoxypropyl)-3H-imidazo[4,5-b]pyridine-5-carboxylic acid] | 9.2
4 | O=c1[nH]c(-c2ccc3nc(CN4CCC(Oc5ccnc(Cc6ccc(Cl)cc6)n5)CC4)n(C[C@@H]4CCO4)c3n2)no1 [Compound 198a, (S)-3-(2-((4-((2-(4-chlorobenzyl)pyrimidin-4-yl)oxy)piperidin-1-yl)methyl)-3-(oxetan-2-ylmethyl)-3H-imidazo[4,5-b]pyridin-5-yl)-1,2,4-oxadiazol-5(4H)-one] | 9.2
5 | NC(=O)c1ccc2nc(CN3CCC(Oc4ccnc(Cc5ccc(Cl)cc5)n4)CC3)n(C[C@@H]3CCO3)c2n1 [Compound 200a, (S)-2-((4-((2-(4-chlorobenzyl)pyrimidin-4-yl)oxy)piperidin-1-yl)methyl)-3-(oxetan-2-ylmethyl)-3H-imidazo[4,5-b]pyridine-5-carboxamide] | 7.1
6 | O=C(O)c1ccc2nc(CN3CC4CC(Oc5ccnc(Cc6ccc(Cl)cc6)n5)CC4C3)n(C[C@@H]3CCO3)c2n1 (stereo partly drawn) [Compound 201a, 2-{[5-({2-[(4-chlorophenyl)methyl]pyrimidin-4-yl}oxy)-octahydrocyclopenta[c]pyrrol-2-yl]methyl}-3-{[(2S)-oxetan-2-yl]methyl}-3H-imidazo[4,5-b]pyridine-5-carboxylic acid] | 6.4
